The source of these data is patent US8952162B2, “Triazolopyridines as phosphodiesterase inhibitors for treatment of dermal diseases” (Leo Pharma A/S, priority 2008, dated 2015).

The structures appear in SMILES notation.

Human recombinant PDE4 (Genbank accession no NM—006203), sequence (Q08499 1-673 isoform Q08499-2): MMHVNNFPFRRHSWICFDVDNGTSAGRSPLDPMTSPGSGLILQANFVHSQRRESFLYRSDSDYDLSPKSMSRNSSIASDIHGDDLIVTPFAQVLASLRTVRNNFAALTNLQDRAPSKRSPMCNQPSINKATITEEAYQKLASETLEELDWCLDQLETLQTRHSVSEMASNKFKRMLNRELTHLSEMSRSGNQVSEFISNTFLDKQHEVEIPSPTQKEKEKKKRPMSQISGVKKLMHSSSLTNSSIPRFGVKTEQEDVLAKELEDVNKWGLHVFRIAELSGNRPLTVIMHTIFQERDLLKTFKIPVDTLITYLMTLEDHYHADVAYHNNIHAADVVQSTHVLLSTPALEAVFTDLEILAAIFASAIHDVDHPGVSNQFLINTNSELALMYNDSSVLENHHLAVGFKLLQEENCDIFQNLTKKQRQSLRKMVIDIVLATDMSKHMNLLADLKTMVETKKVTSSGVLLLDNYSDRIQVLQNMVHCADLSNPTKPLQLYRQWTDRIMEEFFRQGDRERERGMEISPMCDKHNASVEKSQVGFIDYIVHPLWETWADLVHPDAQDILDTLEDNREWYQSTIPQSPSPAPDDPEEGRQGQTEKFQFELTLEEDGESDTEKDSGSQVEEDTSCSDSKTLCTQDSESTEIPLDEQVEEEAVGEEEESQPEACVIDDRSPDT

The first assay concerns the target Human recombinant PDE4 (Genbank accession no NM—006203) (Homo sapiens, UniProt Q08499). Nature of the assay: PDE4 assay (SPA, cAMP cleavage). The settings on record: Example 52; human recombinant PDE4, 1 hour incubation, cAMP 1×10^-5M, test compound up to 10 μM; read-out: PDE4 IC50 range. In kind it is biochemical. Here is the method: At the end of the incubation, the cleavage of the substrate was evaluated by the binding of the AMP product to SPA beads, which generate chemoluminescence when bound to the radioactive tracer. The AMP product inhibited the binding of the radioactive tracer to the beads, and the luminescent signal was competed.
As to `COc1ccc(-c2ccc(OC)c3nc(C4CC4)nn23)cc1` [Compound 103, 2-Cyclopropyl-8-methoxy-5-(4-methoxy-phenyl)-[1,2,4]triazolo[1,5-a]pyridine], the IC50 was under 500 nM.
Still for that read-out and setting: in the case of `COc1ccc(-c2ccc(C(F)(F)F)cc2)n2nc(C3CC3)nc12` [Compound 104, 2-Cyclopropyl-8-methoxy-5-(4-trifluoromethyl-phenyl)-[1,2,4]triazolo[1,5-a]pyridine] it was 500 to 1000 nM; in that of `COc1ccc(-c2ccc(OC)c3nc(C4CC4)nn23)cc1OC` [Compound 105, 2-Cyclopropyl-5-(3,4-dimethoxy-phenyl)-8-methoxy-[1,2,4]triazolo[1,5-a]pyridine], under 500 nM; in that of `COc1ccc(-c2cccs2)n2nc(C3CC3)nc12` [Compound 106, 2-Cyclopropyl-8-methoxy-5-thiophen-2-yl-[1,2,4]triazolo[1,5-a]pyridine], under 500 nM.
On the same count and under the same terms, in the case of `COc1ccc(-c2cccc(NC(C)=O)c2)n2nc(C3CC3)nc12` [Compound 107, N-[3-(2-Cyclopropyl-8-methoxy-[1,2,4]triazolo[1,5-a]pyridin-5-yl)-phenyl]-acetamide] it was over 1000 nM.
On the same count and under the same terms, the same measure for `COc1ccc(-c2cccc(OC(F)(F)F)c2)n2nc(C3CC3)nc12` [Compound 108, 2-Cyclopropyl-8-methoxy-5-(3-trifluoromethoxy-phenyl)-[1,2,4]triazolo[1,5-a]pyridine]: under 500 nM; for `COc1cccc(-c2ccc(OC)c3nc(C4CC4)nn23)c1` [Compound 109, 2-Cyclopropyl-8-methoxy-5-(3-methoxy-phenyl)-[1,2,4]triazolo[1,5-a]pyridine]: under 500 nM.
`COc1ccc(-c2ccc(C(C)=O)s2)n2nc(C3CC3)nc12` [Compound 110, 1-[5-(2-Cyclopropyl-8-methoxy-[1,2,4]triazolo[1,5-a]pyridin-5-yl)-thiophen-2-yl]-ethanone]: the IC50 is under 500 nM.
Same read-out and setting: in the case of `COc1ccc(-c2cncnc2)n2nc(C3CC3)nc12` [Compound 111, 2-Cyclopropyl-8-methoxy-5-pyrimidin-5-yl-[1,2,4]triazolo[1,5-a]pyridine] it was 500 to 1000 nM; in that of `COc1ccc(-c2cccc(S(C)(=O)=O)c2)n2nc(C3CC3)nc12` [Compound 112, 2-Cyclopropyl-5-(3-methanesulfonyl-phenyl)-8-methoxy-[1,2,4]triazolo[1,5-a]pyridine], 500 to 1000 nM.
The same measure, in the same setting: in the case of `COc1ccc(-c2cccc(NS(C)(=O)=O)c2)n2nc(C3CC3)nc12` [Compound 113, N-[3-(2-Cyclopropyl-8-methoxy-[1,2,4]triazolo[1,5-a]pyridin-5-yl)-phenyl]-methanesulfonamide] it was 500 to 1000 nM.
The same measure, in the same setting: the same measure for `CNC(=O)c1cccc(-c2ccc(OC)c3nc(C4CC4)nn23)c1` [Compound 114, 3-(2-Cyclopropyl-8-methoxy-[1,2,4]triazolo[1,5-a]pyridin-5-yl)-N-methyl-benzamide]: over 1000 nM.
For `COc1ccc(-c2ccc(NC(C)=O)cc2)n2nc(C3CC3)nc12` [Compound 116, N-[4-(2-Cyclopropyl-8-methoxy-[1,2,4]triazolo[1,5-a]pyridin-5-yl)-phenyl]-acetamide], the half-inhibitory concentration (IC50) was over 1000 nM.
The same measure, in the same setting: the same measure for `COc1ccc(-c2cccnc2)n2nc(C3CC3)nc12` [Compound 118, 2-Cyclopropyl-8-methoxy-5-pyridin-3-yl-[1,2,4]triazolo[1,5-a]pyridine]: under 500 nM.
For the molecule `COc1ccc(-c2ccc(S(C)(=O)=O)cc2)n2nc(C3CC3)nc12` [Compound 120, 2-Cyclopropyl-5-(4-methanesulfonyl-phenyl)-8-methoxy-[1,2,4]triazolo[1,5-a]pyridine], the IC50 is over 1000 nM.
`COc1ccc(-c2ccccc2F)n2nc(C3CC3)nc12` [Compound 121, 2-Cyclopropyl-5-(2-fluoro-phenyl)-8-methoxy-[1,2,4]triazolo[1,5-a]pyridine]: the IC50 fell in the range of 500 to 1000 nM.
Still for that read-out and setting: in the case of `COCCOc1ccc(-c2ccc(OC)c3nc(C4CC4)nn23)cc1` [Compound 122, 2-Cyclopropyl-8-methoxy-5-[4-(2-methoxy-ethoxy)-phenyl]-[1,2,4]triazolo[1,5-a]pyridine] it was over 1000 nM; in that of `COc1ccc(-c2ccc(C(N)=O)cc2)n2nc(C3CC3)nc12` [Compound 123, 4-(2-Cyclopropyl-8-methoxy-[1,2,4]triazolo[1,5-a]pyridin-5-yl)-benzamide], under 500 nM.
Turning to `CCCCOc1cccc(-c2ccc(OC)c3nc(C4CC4)nn23)c1` [Compound 124, 5-(3-Butoxy-phenyl)-2-cyclopropyl-8-methoxy-[1,2,4]triazolo[1,5-a]pyridine], the IC50 is under 500 nM.
In the case of `COc1ccc(-c2cccc(F)c2)n2nc(C3CC3)nc12` [Compound 125, 2-Cyclopropyl-5-(3-fluoro-phenyl)-8-methoxy-[1,2,4]triazolo[1,5-a]pyridine], the IC50 was under 500 nM.
The same measure, in the same setting: in the case of `COc1ccc(-c2ccncc2)n2nc(C3CC3)nc12` [Compound 126, 2-Cyclopropyl-8-methoxy-5-pyridin-4-yl-[1,2,4]triazolo[1,5-a]pyridine] it was under 500 nM; in that of `COc1ccc(-c2ccc(Cl)cc2Cl)n2nc(C3CC3)nc12` [Compound 127, 2-Cyclopropyl-5-(2,4-dichloro-phenyl)-8-methoxy-[1,2,4]triazolo[1,5-a]pyridine], 500 to 1000 nM.
Same read-out and setting: the same measure for `COc1ccc(-c2ccc(S(=O)(=O)N3CCOCC3)cc2)n2nc(C3CC3)nc12` [Compound 128, 2-Cyclopropyl-8-methoxy-5-[4-(morpholine-4-sulfonyl)-phenyl]-[1,2,4]triazolo[1,5-a]pyridine]: over 1000 nM; for `COc1ccc(-c2ccc(CNC(C)=O)cc2)n2nc(C3CC3)nc12` [Compound 129, N-[4-(2-Cyclopropyl-8-methoxy-[1,2,4]triazolo[1,5-a]pyridin-5-yl)-benzyl]-acetamide]: over 1000 nM.
As to `COc1ccc(-c2ccc(CNS(C)(=O)=O)cc2)n2nc(C3CC3)nc12` [Compound 130, N-[4-(2-Cyclopropyl-8-methoxy-[1,2,4]triazolo[1,5-a]pyridin-5-yl)-benzyl]-methanesulfonamide], the IC50 was over 1000 nM.
The same measure, in the same setting: the same measure for `COc1ccc(-c2ccc(F)cc2)n2nc(C3CC3)nc12` [Compound 131, 2-Cyclopropyl-5-(4-fluoro-phenyl)-8-methoxy-[1,2,4]triazolo[1,5-a]pyridine]: under 500 nM.
Consider `COc1ccc(-c2ccc(C#N)cc2)n2nc(C3CC3)nc12` [Compound 132, 4-(2-Cyclopropyl-8-methoxy-[1,2,4]triazolo[1,5-a]pyridin-5-yl)-benzonitrile], for which the IC50 was under 500 nM.
On the same count and under the same terms, in the case of `COC(=O)CCc1ccc(-c2ccc(OC)c3nc(C4CC4)nn23)cc1` [Compound 133, 3-[4-(2-Cyclopropyl-8-methoxy-[1,2,4]triazolo[1,5-a]pyridin-5-yl)-phenyl]-propionic acid methyl ester] it was 500 to 1000 nM; in that of `COc1ccc(-c2ccc(S(=O)(=O)NCCO)cc2)n2nc(C3CC3)nc12` [Compound 134, 4-(2-Cyclopropyl-8-methoxy-[1,2,4]triazolo[1,5-a]pyridin-5-yl)-N-(2-hydroxy-ethyl)-benzenesulfonamide], over 1000 nM; in that of `COc1ccc(N2CCCCC2)n2nc(C3CC3)nc12` [Compound 143, 2-Cyclopropyl-8-methoxy-5-piperidin-1-yl-[1,2,4]triazolo[1,5-a]pyridine], under 500 nM.

The same assay, now with this note: Example 53; PDE4 assay as in example 52; read-out: PDE4 IC50 range.
Turning to `CC(=O)c1cccc(-c2ccc(O)c3nc(C4CC4)nn23)c1` [Compound 144, 1-[3-(2-Cyclopropyl-8-hydroxy-[1,2,4]triazolo[1,5-a]pyridin-5-yl)-phenyl]-ethanone], the concentration for half-maximal inhibition (IC50) was under 500 nM.
On the same count and under the same terms, in the case of `COc1ccc(-c2cc(C#N)ccn2)n2nc(C3CC3)nc12` [Compound 145, 2-(2-Cyclopropyl-8-methoxy-[1,2,4]triazolo[1,5-a]pyridin-5-yl)-isonicotinonitrile] it was 500 to 1000 nM; in that of `CCOC(=O)C1(c2nc3c(OC)ccc(-c4ccc(C#N)cc4)n3n2)CC1` [Compound 146, 1-[5-(4-Cyano-phenyl)-8-methoxy-[1,2,4]triazolo[1,5-a]pyridin-2-yl]-cyclopropanecarboxylic acid ethyl ester], 500 to 1000 nM.
Still for that read-out and setting: in the case of `COc1ccc(-c2ccc(C#N)cc2)n2nc(C3(C(=O)O)CC3)nc12` [Compound 147, 1-[5-(4-Cyano-phenyl)-8-methoxy-[1,2,4]triazolo[1,5-a]pyridin-2-yl]-cyclopropanecarboxylic acid] it was over 1000 nM; in that of `COc1ccc(-c2ccc(C#N)cc2)n2nc(C3(C(N)=O)CC3)nc12` [Compound 148, 1-[5-(4-Cyano-phenyl)-8-methoxy-[1,2,4]triazolo[1,5-a]pyridin-2-yl]-cyclopropanecarboxylic acid amide], under 500 nM; in that of `COc1ccc(-c2cncc(C#N)c2)n2nc(C3(C(=O)NC(C)C)CC3)nc12` [Compound 149, 1-[5-(5-Cyano-pyridin-3-yl)-8-methoxy-[1,2,4]triazolo[1,5-a]pyridin-2-yl]-cyclopropanecarboxylic acid isopropylamide], under 500 nM.
The same measure, in the same setting: in the case of `COc1ccc(-c2cccc(C#N)c2)n2nc(C3(COC(=O)N4CCCC4)CC3)nc12` [Compound 151, Pyrrolidine-1-carboxylic acid 1-[5-(3-cyano-phenyl)-8-methoxy-[1,2,4]triazolo[1,5-a]pyridin-2-yl]-cyclopropylmethyl ester] it was under 500 nM; in that of `COc1ccc(-c2cccc(C#N)c2)n2nc(C3(COC(=O)NC(C)C)CC3)nc12` [Compound 152, Isopropyl-carbamic acid 1-[5-(3-cyano-phenyl)-8-methoxy-[1,2,4]triazolo[1,5-a]pyridin-2-yl]-cyclopropylmethyl ester], under 500 nM; in that of `COc1ccc(-c2cccc(C#N)c2)n2nc(C3(COCc4ccccc4)CC3)nc12` [Compound 153, 3-[2-(1-Benzyloxymethyl-cyclopropyl)-8-methoxy-[1,2,4]-triazolo[1,5-a]pyridin-5-yl]-benzonitrile], under 500 nM.

Usually IC50 stands for the concentration that gives 50% inhibition.
